Test results: ChEMBL document CHEMBL1201861, “Genomics of Drug Sensitity in Cancer screening data, Wellcome Trust Sanger Institute”

Key:
[1] = system: CP50-MEL-B; assay: cells; type: functional, cell-based; settings: Homo sapiens;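 also: growth inhibition of the human cell line, measured with a cell viability read-out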
Description: SANGER: Inhibition of human CP50-MEL-B cell growth in a cell viability assay.

[2] = system: DK-MG; assay: cells; type: functional, cell-based; settings: Homo sapiens;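 also: growth inhibition of DK-MG cells, read out with a cell viability assay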
Description: SANGER: Inhibition of human DK-MG cell growth in a cell viability assay.

[3] = system: EGI-1; assay: cells; type: functional, cell-based; settings: Homo sapiens;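 also: cell viability readout used to gauge growth inhibition of EGI-1 cells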
Description: SANGER: Inhibition of human EGI-1 cell growth in a cell viability assay.

[4] = system: ESS-1; assay: cells; type: functional, cell-based; settings: Homo sapiens;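 also: growth inhibition of human ESS-1 cells, read out by a cell viability assay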
Description: SANGER: Inhibition of human ESS-1 cell growth in a cell viability assay.

[5] = system: HCC1395; assay: cells; type: functional, cell-based; settings: Homo sapiens;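 also: growth inhibition of HCC1395 cells, read out by a cell viability assay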
Description: SANGER: Inhibition of human HCC1395 cell growth in a cell viability assay.

[6] = system: HCC1599; assay: cells; type: functional, cell-based, Homo sapiens; settings: Homo sapiens, HCC1599;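 also: growth inhibition of HCC1599 cells, read out in a cell viability assay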
Description: SANGER: Inhibition of human HCC1599 cell growth in a cell viability assay.

[7] = system: HCC1937; assay: cells; type: functional, cell-based; settings: Homo sapiens;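 also: growth inhibition measured with a cell viability read-out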
Description: SANGER: Inhibition of human HCC1937 cell growth in a cell viability assay.

[8] = system: HSC-2; assay: cells; type: functional, cell-based; settings: Homo sapiens;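 also: growth inhibition of human HSC-2 cells, read out by a cell viability assay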
Description: SANGER: Inhibition of human HSC-2 cell growth in a cell viability assay.

[9] = system: HuP-T3; assay: cells; type: functional, cell-based; settings: Homo sapiens;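 also: HuP-T3 cell growth inhibition, read out with a cell viability assay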
Description: SANGER: Inhibition of human HuP-T3 cell growth in a cell viability assay.

[10] = system: IM-9; assay: SANGER: Inhibition of human IM-9 cell growth in a cell viability assay.; type: functional, cell-based; settings: Homo sapiens, IM-9
[11] = system: IMR-5; assay: cells; type: functional, cell-based, Homo sapiens; settings: Homo sapiens, IMR-5; read-out: IC50;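 also: growth inhibition of human IMR-5 cells, read out with a cell viability assay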
Description: SANGER: Inhibition of human IMR-5 cell growth in a cell viability assay.

[12] = system: KU-19-19; assay: cells; type: functional, cell-based; settings: Homo sapiens
Description: SANGER: Inhibition of human KU-19-19 cell growth in a cell viability assay.

[13] = system: KYSE-270; assay: cells; type: functional, cell-based; settings: Homo sapiens;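 also: cell growth inhibition measured with a viability assay in the human KYSE-270 line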
Description: SANGER: Inhibition of human KYSE-270 cell growth in a cell viability assay.

[14] = system: KYSE-450; assay: cells; type: functional, cell-based; settings: Homo sapiens;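 also: cell growth inhibition measured by a viability assay in human KYSE-450 cells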
Description: SANGER: Inhibition of human KYSE-450 cell growth in a cell viability assay.

[15] = system: LB647-SCLC; assay: cells; type: functional, cell-based, Homo sapiens; settings: Homo sapiens, LB647-SCLC;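 also: cell growth inhibition, read out by a viability assay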
Description: SANGER: Inhibition of human LB647-SCLC cell growth in a cell viability assay.

[16] = system: LK-2; assay: cells; type: functional, cell-based; settings: Homo sapiens;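 also: growth inhibition of LK-2 cells, read out with a viability assay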
Description: SANGER: Inhibition of human LK-2 cell growth in a cell viability assay.

[17] = system: LU-165; assay: cells; type: functional, cell-based, Homo sapiens; settings: Homo sapiens, LU-165
Description: SANGER: Inhibition of human LU-165 cell growth in a cell viability assay.

[18] = system: M14; assay: cells; type: functional, cell-based; settings: Homo sapiens;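 also: growth inhibition of M14 cells, read out with a cell viability assay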
Description: SANGER: Inhibition of human M14 cell growth in a cell viability assay.

[19] = system: MCF7; assay: cells; type: functional, cell-based; settings: Homo sapiens;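 also: growth inhibition of human MCF7 cells, read out with a cell viability assay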
Description: SANGER: Inhibition of human MCF7 cell growth in a cell viability assay.

[20] = system: MDA-MB-175-VII; assay: cells; type: functional, cell-based; settings: Homo sapiens
[21] = system: MEL-HO; assay: cells; type: functional, cell-based; settings: Homo sapiens
Description: SANGER: Inhibition of human MEL-HO cell growth in a cell viability assay.

[22] = system: MFE-280; assay: cells; type: functional, cell-based; settings: Homo sapiens;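 also: growth inhibition of MFE-280 cells, determined with a cell viability readout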
Description: SANGER: Inhibition of human MFE-280 cell growth in a cell viability assay.

[23] = system: MFH-ino; assay: cells; type: functional, cell-based, Homo sapiens; settings: Homo sapiens, MFH-ino;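 also: growth inhibition of human MFH-ino cells, read out by a cell viability assay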
Description: SANGER: Inhibition of human MFH-ino cell growth in a cell viability assay.

[24] = system: MHH-ES-1; assay: cells; type: functional, cell-based; settings: Homo sapiens
Description: SANGER: Inhibition of human MHH-ES-1 cell growth in a cell viability assay.

[25] = system: NCI-H1436; assay: cells; type: functional, cell-based, Homo sapiens; settings: Homo sapiens, NCI-H1436;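 also: growth suppression of human NCI-H1436 cells, determined with a cell viability readout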
Description: SANGER: Inhibition of human NCI-H1436 cell growth in a cell viability assay.

[26] = system: NCI-H1792; assay: cells; type: functional, cell-based; settings: Homo sapiens;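 also: growth inhibition of human NCI-H1792 cells, read out as cell viability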
Description: SANGER: Inhibition of human NCI-H1792 cell growth in a cell viability assay.

[27] = system: NCI-H187; assay: cells; type: functional, cell-based, Homo sapiens; settings: Homo sapiens, NCI-H187;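 also: growth inhibition of NCI-H187 cells, read out as cell viability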
Description: SANGER: Inhibition of human NCI-H187 cell growth in a cell viability assay.

[28] = system: NCI-H1963; assay: cells; type: functional, cell-based, Homo sapiens; settings: Homo sapiens, NCI-H1963;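 also: cell growth inhibition of the human line, determined with a cell viability assay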
Description: SANGER: Inhibition of human NCI-H1963 cell growth in a cell viability assay.

[29] = system: NCI-H2122; assay: cells; type: functional, cell-based; settings: Homo sapiens;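 also: growth inhibition of the cells, read out with a cell viability assay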
Description: SANGER: Inhibition of human NCI-H2122 cell growth in a cell viability assay.

[30] = system: NCI-H2170; assay: cells; type: functional, cell-based; settings: Homo sapiens;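 also: cell viability assay measuring growth inhibition of human NCI-H2170 cancer cells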
Description: SANGER: Inhibition of human NCI-H2170 cell growth in a cell viability assay.

[31] = system: NCI-H2342; assay: cells; type: functional, cell-based; settings: Homo sapiens;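 also: growth inhibition of the cancer cell line, determined with a cell viability assay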
Description: SANGER: Inhibition of human NCI-H2342 cell growth in a cell viability assay.

[32] = system: NCI-H292; assay: cells; type: functional, cell-based; settings: Homo sapiens;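 also: growth inhibition of NCI-H292 cells, read out with a cell viability assay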
Description: SANGER: Inhibition of human NCI-H292 cell growth in a cell viability assay.

[33] = system: NCI-H522; assay: cells; type: functional, cell-based; settings: Homo sapiens;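 also: cell viability assay measuring growth inhibition of human NCI-H522 cells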
Description: SANGER: Inhibition of human NCI-H522 cell growth in a cell viability assay.

[34] = system: NCI-H810; assay: cells; type: functional, cell-based; settings: Homo sapiens;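 also: IC50 reflects inhibition of cancer cell line growth, read out with a cell viability assay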
Description: SANGER: Inhibition of human NCI-H810 cell growth in a cell viability assay.

[35] = system: OVCAR-3; assay: cells; type: functional, cell-based; settings: Homo sapiens;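 also: growth inhibition of human OVCAR-3 cells, determined by a cell viability assay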
Description: SANGER: Inhibition of human OVCAR-3 cell growth in a cell viability assay.

[36] = system: OVCAR-5; assay: cells; type: functional, cell-based; settings: Homo sapiens;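 also: growth inhibition of human OVCAR-5 cells, read out with a cell viability assay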
Description: SANGER: Inhibition of human OVCAR-5 cell growth in a cell viability assay.

[37] = system: P12-Ichikawa; assay: cells; type: functional, cell-based; settings: Homo sapiens
[38] = system: PA-1; assay: cells; type: functional, cell-based; settings: Homo sapiens;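 also: IC50 for suppression of PA-1 cell proliferation, determined with a cell viability read-out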
Description: SANGER: Inhibition of human PA-1 cell growth in a cell viability assay.

[39] = system: PANC-08-13; assay: cells; type: functional, cell-based; settings: Homo sapiens
Description: SANGER: Inhibition of human PANC-08-13 cell growth in a cell viability assay.

[40] = system: RCM-1; assay: cells; type: functional, cell-based; settings: Homo sapiens;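 also: growth inhibition of the RCM-1 line, determined with a cell viability readout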
Description: SANGER: Inhibition of human RCM-1 cell growth in a cell viability assay.

[41] = system: RL; assay: cells; type: functional, cell-based, Homo sapiens; settings: Homo sapiens, RL
Description: SANGER: Inhibition of human RL cell growth in a cell viability assay.

[42] = system: SAS; assay: cells; type: functional, cell-based; settings: Homo sapiens;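 also: growth inhibition of SAS cells, read out with a cell viability assay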
Description: SANGER: Inhibition of human SAS cell growth in a cell viability assay.

[43] = system: SCC-4; assay: cells; type: functional, cell-based; settings: Homo sapiens;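 also: growth inhibition of human SCC-4 cells, read out as cell viability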
Description: SANGER: Inhibition of human SCC-4 cell growth in a cell viability assay.

[44] = system: SK-MM-2; assay: cells; type: functional, cell-based, Homo sapiens; settings: Homo sapiens, SK-MM-2;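 also: growth inhibition of human SK-MM-2 cells, read out with a cell viability assay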
Description: SANGER: Inhibition of human SK-MM-2 cell growth in a cell viability assay.

[45] = system: SW1088; assay: cells; type: functional, cell-based; settings: Homo sapiens;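 also: growth inhibition of human SW1088 cells, read out by a cell viability assay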
Description: SANGER: Inhibition of human SW1088 cell growth in a cell viability assay.

[46] = system: SW1573; assay: cells; type: functional, cell-based; settings: Homo sapiens;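 also: growth inhibition of SW1573 cells, read out with a cell viability assay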
Description: SANGER: Inhibition of human SW1573 cell growth in a cell viability assay.

[47] = system: SW1783; assay: cells; type: functional, cell-based; settings: Homo sapiens
Description: SANGER: Inhibition of human SW1783 cell growth in a cell viability assay.

[48] = system: SW48; assay: cells; type: functional, cell-based; settings: Homo sapiens;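 also: growth inhibition of SW48 cells, read out with a cell viability assay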
Description: SANGER: Inhibition of human SW48 cell growth in a cell viability assay.

[49] = system: SW780; assay: cells; type: functional, cell-based; settings: Homo sapiens;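 also: growth inhibition of the cells, read out with a cell viability assay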
Description: SANGER: Inhibition of human SW780 cell growth in a cell viability assay.

[50] = system: T84; assay: cells; type: functional, cell-based; settings: Homo sapiens;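 also: growth inhibition measured with a cell viability readout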
Description: SANGER: Inhibition of human T84 cell growth in a cell viability assay.

[51] = system: 639-V; assay: cells; type: functional, cell-based; settings: Homo sapiens;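 also: growth inhibition of 639-V cells, read out with a cell viability assay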
Description: SANGER: Inhibition of human 639-V cell growth in a cell viability assay.

[52] = system: 8305C; assay: cells; type: functional, cell-based; settings: Homo sapiens
Description: SANGER: Inhibition of human 8305C cell growth in a cell viability assay.

[53] = system: A-427; assay: cells; type: functional, cell-based; settings: Homo sapiens;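 also: growth inhibition of human A-427 cells, read out by a cell viability assay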
Description: SANGER: Inhibition of human A427 cell growth in a cell viability assay.

[54] = system: CAKI-1; assay: cells; type: functional, cell-based; settings: Homo sapiens;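 also: growth inhibition of CAKI-1 cells, measured by a cell viability assay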
Description: SANGER: Inhibition of human CAKI-1 cell growth in a cell viability assay.

[55] = system: CAL-148; assay: cells; type: functional, cell-based, Homo sapiens; settings: Homo sapiens, CAL-148
Description: SANGER: Inhibition of human CAL-148 cell growth in a cell viability assay.

[56] = system: CAL-62; assay: cells; type: functional, cell-based; settings: Homo sapiens;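 also: growth inhibition of CAL-62 cells, read out with a cell viability assay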
Description: SANGER: Inhibition of human CAL-62 cell growth in a cell viability assay.

[57] = system: U-251; assay: cells; type: functional, cell-based; settings: Homo sapiens;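 also: growth inhibition of human U-251 cells, read out through a cell viability assay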
Description: SANGER: Inhibition of human U251 cell growth in a cell viability assay.

[58] = system: VMRC-RCZ; assay: cells; type: functional, cell-based; settings: Homo sapiens
Description: SANGER: Inhibition of human VMRC-RCZ cell growth in a cell viability assay.

[59] = system: COLO-679; assay: cells; type: functional, cell-based; settings: Homo sapiens
Description: SANGER: Inhibition of human COLO-679 cell growth in a cell viability assay.

[60] = system: Kasumi 1; assay: cells; type: functional, cell-based, Homo sapiens; settings: Homo sapiens, Kasumi 1;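 also: growth inhibition of human Kasumi-1 cells, read out by a cell viability assay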
Description: SANGER: Inhibition of human KASUMI-1 cell growth in a cell viability assay.

C/C(=C\c1csc(C)n1)[C@@H]1C[C@@H]2O[C@]2(C)CCC[C@H](C)[C@H](O)[C@@H](C)C(=O)C(C)(C)[C@@H](O)CC(=O)O1 [PATUPILONE]
IC50 [1]: 19 nM | IC50 [2]: > 32 nM | IC50 [3]: > 32 nM | IC50 [4]: 1.52 nM | IC50 [5]: > 32 nM | IC50 [6]: 11.9 nM | IC50 [7]: > 32 nM | IC50 [8]: 0.363 nM | IC50 [9]: 3.81 nM | IC50 [10]: > 32 nM | IC50 [11]: 9.51 nM | IC50 [12]: > 32 nM | IC50 [13]: 0.445 nM | IC50 [14]: 0.267 nM | IC50 [15]: 3.1 nM | IC50 [16]: 4.86 nM | IC50 [17]: > 32 nM | IC50 [18]: > 32 nM | IC50 [19]: 0.0866 nM | IC50 [20]: > 32 nM | IC50 [21]: 1.69 nM | IC50 [22]: > 32 nM | IC50 [23]: 0.885 nM | IC50 [24]: 0.893 nM | IC50 [25]: 7.83 nM | IC50 [26]: 8.28 nM | IC50 [27]: > 32 nM | IC50 [28]: 12 nM | IC50 [29]: 0.41 nM | IC50 [30]: 5.22 nM | IC50 [31]: 0.577 nM | IC50 [32]: 1.42 nM | IC50 [33]: 0.635 nM | IC50 [34]: 0.322 nM | IC50 [35]: 4.13 nM | IC50 [36]: 2.84 nM | IC50 [37]: 11 nM | IC50 [38]: 0.174 nM | IC50 [39]: 31.1 nM | IC50 [40]: 15.2 nM | IC50 [41]: > 32 nM | IC50 [42]: > 32 nM | IC50 [43]: 0.877 nM | IC50 [44]: 17.3 nM | IC50 [45]: 5.79 nM | IC50 [46]: 14.6 nM | IC50 [47]: 1.48 nM | IC50 [48]: 4.2 nM | IC50 [49]: > 32 nM | IC50 [50]: 0.24 nM | IC50 [51]: 0.218 nM | IC50 [52]: 2.32 nM | IC50 [53]: 0.828 nM | IC50 [54]: 17.3 nM | IC50 [55]: 6.26 nM | IC50 [56]: 0.875 nM | IC50 [57]: 10.8 nM | IC50 [58]: 0.136 nM | IC50 [59]: 0.394 nM

Cc1ccc(C(=O)Nc2ccc(CN3CCN(C)CC3)c(C(F)(F)F)c2)cc1C#Cc1cnc2cccnn12 [PONATINIB]
IC50 [1]: > 512 nM | IC50 [2]: > 512 nM | IC50 [3]: > 512 nM | IC50 [4]: 478 nM | IC50 [5]: > 512 nM | IC50 [6]: > 512 nM | IC50 [7]: > 512 nM | IC50 [8]: > 512 nM | IC50 [9]: > 512 nM | IC50 [10]: > 512 nM | IC50 [11]: > 512 nM | IC50 [60]: 2.17 nM | IC50 [12]: > 512 nM | IC50 [13]: > 512 nM | IC50 [14]: 273 nM | IC50 [15]: > 512 nM | IC50 [16]: > 512 nM | IC50 [17]: > 512 nM | IC50 [18]: > 512 nM | IC50 [19]: > 512 nM | IC50 [20]: > 512 nM | IC50 [21]: > 512 nM | IC50 [22]: 315 nM | IC50 [23]: > 512 nM | IC50 [24]: > 512 nM | IC50 [25]: > 512 nM | IC50 [26]: > 512 nM | IC50 [27]: > 512 nM | IC50 [28]: > 512 nM | IC50 [29]: > 512 nM | IC50 [30]: > 512 nM | IC50 [31]: 186 nM | IC50 [32]: > 512 nM | IC50 [33]: 453 nM | IC50 [34]: > 512 nM | IC50 [35]: > 512 nM | IC50 [36]: > 512 nM | IC50 [37]: > 512 nM | IC50 [38]: > 512 nM | IC50 [39]: > 512 nM | IC50 [40]: > 512 nM | IC50 [41]: > 512 nM | IC50 [42]: > 512 nM | IC50 [43]: > 512 nM | IC50 [44]: > 512 nM | IC50 [45]: 444 nM | IC50 [46]: > 512 nM | IC50 [47]: > 512 nM | IC50 [48]: > 512 nM | IC50 [49]: 423 nM | IC50 [50]: > 512 nM | IC50 [51]: > 512 nM | IC50 [52]: 398 nM | IC50 [53]: 273 nM | IC50 [54]: 217 nM | IC50 [55]: > 512 nM | IC50 [56]: > 512 nM | IC50 [57]: > 512 nM | IC50 [59]: > 512 nM
